In BindingDB's records for PubMed 10565829 (Loughborough University, 1999):

Tests used:
Mu-type opioid receptor = Mu-type opioid receptor (Cavia porcellus, UniProt P97266)
[1] = molecular target: Kappa-type opioid receptor (Cavia porcellus, UniProt P41144)
Kappa-type opioid receptor, sequence (P41144 whole entry): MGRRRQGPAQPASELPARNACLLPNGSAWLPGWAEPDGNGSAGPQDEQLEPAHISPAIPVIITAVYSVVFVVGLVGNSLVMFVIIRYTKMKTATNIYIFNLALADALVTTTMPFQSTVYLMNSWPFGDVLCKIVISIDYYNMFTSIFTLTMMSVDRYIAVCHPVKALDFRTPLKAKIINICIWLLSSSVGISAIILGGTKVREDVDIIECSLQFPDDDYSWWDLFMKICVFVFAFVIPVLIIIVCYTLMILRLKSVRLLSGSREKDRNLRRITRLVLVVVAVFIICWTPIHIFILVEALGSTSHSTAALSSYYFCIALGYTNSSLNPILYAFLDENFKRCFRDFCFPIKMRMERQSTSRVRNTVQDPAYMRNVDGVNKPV

Mu-type opioid receptor, sequence (P97266 whole entry): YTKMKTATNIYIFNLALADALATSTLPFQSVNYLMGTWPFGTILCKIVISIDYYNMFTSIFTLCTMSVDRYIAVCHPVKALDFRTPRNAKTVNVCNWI

For `CO[C@@]12CC[C@@]3(C[C@@H]1[C@@](C)(O)C(C)(C)C)[C@H]1Cc4ccc(O)c5c4[C@@]3(CCN1CC1CC1)[C@H]2O5` [BUPRENORPHINE], the Ki (Mu-type opioid receptor) was 0.57 nM and the Ki [1] was 2 nM.
